Test [1] has as its target T1, T-type calcium channel α1H (Cav3.2) (Homo sapiens, UniProt O95180).
T1 construct: expressed in transfected cells; host or cells: Xenopus laevis unfertilized oocytes injected with cRNA (pGEM-HEA linearised with AflII, T7 transcription)
Briefly: Two-electrode voltage clamp on Xenopus unfertilized oocytes expressing α1H T-type calcium channel. The conditions noted are these: test potential -20 mV from -90 mV; for inhibition at 100 µM: read-out: inhibitory effect (blocking percentage), Xenopus oocyte (α1H) at 100 μM. Format: cell-based. As for the experimental part:
In order to express a gene encoding T-type calcium channel α1H (Cav3.2) (Cribbs, L. L. et al., Circ. Res., 1998, 83, 103-109) in unfertilized Xenopus oocytes, pGEM-HEA was treated with restriction enzyme AflII to obtain a DNA fragment containing 5′-terminal region having the T-type calcium channel cDNA (AF051946). cRNA having a corresponding sequence to that of the fragment was synthesized using T7 RNA polymerase according to the manufacturer's instructions (mMESSAGE mMACHINE kit, Ambion, Austin, U.S.A.). The synthesized cRNA was quantified by measuring the O.D. value with a spectrophotometer. At this time, unfertilized oocytes were prepared from female Xenopus laevis (Xenopus I, U.S.A.) according to the following method. After the frog's abdomen was incised by about 1 cm, three to four lobes were detached therefrom with scissors and separated into small pieces to which several oocytes were attached. The small pieces were hydrolyzed in OR solution (82.5 mM NaCl, 2.5 mM KCl, 1 mM MgCl2, 5 mM HEPES, pH 7.6) and supplemented with collagenase type IA (Sigma, U.S.A.) to remove defolliculation. After selecting healthy oocytes with a dissecting microscope, they were soaked in SOS solution (100 mM NaCl, 2 mM KCl, 1.8 mM CaCl2, 1 mM MgCl2, 5 mM HEPES, 2.5 mM pyruvate, […] gentamicin, pH 7.6) for 3 to 4 hours to revitalize them. 2 to 5 ng of cRNA was injected into each oocyte using Nano-injector. The oocytes were subjected to a test in order to examine the electrical properties of the channel expressed therefrom 4 to 5 days after the injection while being maintained at 18° C.
The current of the calcium channel expressed from the Xenopus unfertilized oocytes was measured according to a two-electrode voltage clamping method. The current was measured in 10 mM Ba^2+ solution (10 mM Ba(OH)2, 90 mM NaOH, 1 mM KCl, 0.1 mM EDTA, 5 mM HEPES, pH was adjusted to 7.4 with methanesulfonic acid). At this time, the voltage clamp and current measurement were regulated with an amplifier for unfertilized oocytes (Model OC-725C, Warner Instrument Corp., U.S.A.), and analog signals were converted into digital signals using Digidata 2000A (Analog-Digital converter, Axon Instrument). The acquisition, storage and analysis of all data were recorded in Pentium IV computer via pCLAMP8. The data were mainly collected at 5 KHz and filtered at 1 KHz (Model 902 filter; Frequency devices located at Harverhill, Mass., U.S.A.). The T-type current was generated by imposing test electric potential of −20 mV every 15 seconds on the unfertilized oocytes, the potential of which was fixed at −90 mV. A blocking percentage was calculated by comparing the […] before and after the drug treatment.
For orientation: Two-electrode voltage clamp holds a large cell at a set potential and records current.

Test [2] has as its target T2, α1G T-type calcium channel (Rattus norvegicus, UniProt O54898).
T2 construct: expressed in transfected cells; Perez-Reyes, University of Virginia
The test is described as follows: Whole cell patch clamp on HEK 293 cells expressing α1G T-type calcium channel. The conditions noted are these: for IC50: read-out: IC50, HEK293 cells (α1G). The class given is cell-based. Here is the method:
HEK 293 cells were cultured in Dulbecco's modified Eagle's medium (DMEM) supplemented with 10% fetal bovine serum (FBS) and 1% penicillin/streptomycin (v/v) in 36.5° C. humidified incubator (95% air-5% CO2). The culture solution was replaced with a fresh medium every 3 to 4 days and the cultured cells were subjected to sub-culture every week. At this time, the culture solution was treated with G-418 (0.5 mg/ml) solution so that only HEK 293 cells expressing α1G T-type calcium channel can grow. The cells used for the T-type calcium channel activity assay were cultured on a cover slip coated with poly-L-lysine (0.5 mg/ml) whenever sub-cultured and their calcium channel activity was recorded 2 to 7 days after the cultivation. The current of the T-type calcium channel at a single cell level was measured according to an electrophysiological whole cell patch clamping method using EPC-9 amplifier (HEKA, German). At this time, a cell exterior solution [140 mM NaCl, 2 mM CaCl2, 10 mM HEPES (pH 7.4)] and a cell interior solution [KCl 130 mM, HEPES 10 mM, EGTA 11 mM, MgATP 5 mM (pH 7.4)] were employed. The inward current caused by the T-type calcium channel activation was measured according to a T-type calcium channel protocol activated at low current. Such current occurs when the cells were converted into a whole-cell recording mode by stabbing a microglass electrode having 3-4 MΩ resistance, which was filled with the cell interior solution into a single cell and depolarized at −30 mV (50 ms duration period) every 10 seconds with fixing membrane potential to −100 mV.
In order to confirm whether the cells and methods used in Test Example 2 are a suitable screening system for selecting T-type calcium channel blockers, the results obtained in Example 2 were compared with those of α1G T-type calcium channel study reported in a public document (Monteil, A. et al., J. Biol. Chem. 275, 6090-6100, 2000). […] Thus, the candidate compounds were subjected to a test for their inhibitory effects on the T-type calcium channel according to the screening system of the present invention, as follows. Each compound was dissolved in 100% dimethylsulfoxide (DMSO) to prepare 10 mM stock solution. The inhibitory effect on the T-type calcium channel current was examined in 10 μM sample solution (containing 0.1% DMSO) prepared by diluting the stock solution by 1000-fold. The cells were treated with each compound at a concentration of 10 μM for 30 to 60 sec with the cell exterior solution.

The mark [3] stands for this setting: HEK293, read-out: inhibitory effect on peak current, HEK293 cells (α1G) at 10 μM.
The mark [4] stands for this setting: HEK293, 10 μM, HEK 293 cells expressing α1G, 30 to 60 sec treatment, read-out: inhibitory effect on peak current, HEK293 cells (α1G) at 10 μM.

Where two headings read alike, the source gives them in different places.

T2 sequence (O54898 whole entry): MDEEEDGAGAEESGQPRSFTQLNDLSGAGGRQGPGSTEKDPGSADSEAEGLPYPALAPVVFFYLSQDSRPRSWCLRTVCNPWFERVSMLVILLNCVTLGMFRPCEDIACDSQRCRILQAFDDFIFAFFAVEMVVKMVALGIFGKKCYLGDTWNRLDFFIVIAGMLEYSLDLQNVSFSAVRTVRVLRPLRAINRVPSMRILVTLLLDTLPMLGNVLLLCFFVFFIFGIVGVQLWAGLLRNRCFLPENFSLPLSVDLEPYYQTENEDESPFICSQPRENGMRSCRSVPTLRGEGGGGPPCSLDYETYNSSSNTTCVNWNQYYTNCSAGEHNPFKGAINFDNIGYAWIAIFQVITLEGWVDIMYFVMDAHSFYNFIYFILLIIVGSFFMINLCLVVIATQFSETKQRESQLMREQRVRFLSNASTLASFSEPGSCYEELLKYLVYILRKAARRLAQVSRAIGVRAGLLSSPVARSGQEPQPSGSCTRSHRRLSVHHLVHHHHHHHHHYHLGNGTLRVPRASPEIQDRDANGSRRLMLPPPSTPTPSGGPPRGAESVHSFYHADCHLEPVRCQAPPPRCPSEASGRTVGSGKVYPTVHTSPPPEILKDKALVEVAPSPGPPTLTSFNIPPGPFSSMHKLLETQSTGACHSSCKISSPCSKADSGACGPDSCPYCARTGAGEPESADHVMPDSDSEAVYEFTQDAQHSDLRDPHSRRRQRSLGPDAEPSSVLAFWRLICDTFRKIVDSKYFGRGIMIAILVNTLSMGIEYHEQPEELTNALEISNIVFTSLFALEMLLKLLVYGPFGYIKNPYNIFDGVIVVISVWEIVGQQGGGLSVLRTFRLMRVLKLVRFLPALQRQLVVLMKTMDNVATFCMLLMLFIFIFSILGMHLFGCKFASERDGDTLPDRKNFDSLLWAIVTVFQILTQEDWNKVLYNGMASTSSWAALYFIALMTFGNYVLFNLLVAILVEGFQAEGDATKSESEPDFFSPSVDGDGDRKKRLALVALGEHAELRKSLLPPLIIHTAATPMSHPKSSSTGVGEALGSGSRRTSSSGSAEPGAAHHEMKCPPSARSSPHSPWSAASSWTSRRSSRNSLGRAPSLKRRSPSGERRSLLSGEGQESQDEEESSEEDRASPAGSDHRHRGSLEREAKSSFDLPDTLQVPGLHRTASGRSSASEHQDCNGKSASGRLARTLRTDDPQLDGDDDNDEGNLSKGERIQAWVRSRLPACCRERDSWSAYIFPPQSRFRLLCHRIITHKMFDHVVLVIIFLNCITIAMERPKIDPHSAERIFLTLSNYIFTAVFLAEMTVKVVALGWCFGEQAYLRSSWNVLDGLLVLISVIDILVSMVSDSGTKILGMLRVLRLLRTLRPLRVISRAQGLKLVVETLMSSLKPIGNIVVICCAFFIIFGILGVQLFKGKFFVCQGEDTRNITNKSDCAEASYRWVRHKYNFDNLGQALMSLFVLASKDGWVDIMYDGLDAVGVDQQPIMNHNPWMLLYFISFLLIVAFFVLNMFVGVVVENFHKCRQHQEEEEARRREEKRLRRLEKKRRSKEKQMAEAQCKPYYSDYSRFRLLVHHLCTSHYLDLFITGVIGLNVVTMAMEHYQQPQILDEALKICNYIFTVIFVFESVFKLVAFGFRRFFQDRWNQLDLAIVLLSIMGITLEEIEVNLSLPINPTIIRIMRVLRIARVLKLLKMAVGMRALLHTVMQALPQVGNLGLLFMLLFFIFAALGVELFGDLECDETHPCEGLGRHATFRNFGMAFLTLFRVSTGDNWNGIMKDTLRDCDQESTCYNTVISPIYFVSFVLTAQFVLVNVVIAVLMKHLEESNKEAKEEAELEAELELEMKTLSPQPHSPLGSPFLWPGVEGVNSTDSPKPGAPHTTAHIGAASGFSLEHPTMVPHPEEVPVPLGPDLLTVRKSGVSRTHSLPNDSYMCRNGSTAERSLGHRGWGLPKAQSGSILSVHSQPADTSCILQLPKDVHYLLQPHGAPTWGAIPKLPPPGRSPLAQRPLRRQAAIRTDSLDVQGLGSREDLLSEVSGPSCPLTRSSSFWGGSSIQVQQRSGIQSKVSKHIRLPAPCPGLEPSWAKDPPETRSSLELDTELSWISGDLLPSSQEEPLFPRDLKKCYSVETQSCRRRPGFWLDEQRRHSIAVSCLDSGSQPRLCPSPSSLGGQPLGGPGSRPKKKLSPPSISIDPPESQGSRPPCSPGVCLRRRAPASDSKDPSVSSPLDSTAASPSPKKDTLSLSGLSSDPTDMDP
T1 sequence (O95180 whole entry): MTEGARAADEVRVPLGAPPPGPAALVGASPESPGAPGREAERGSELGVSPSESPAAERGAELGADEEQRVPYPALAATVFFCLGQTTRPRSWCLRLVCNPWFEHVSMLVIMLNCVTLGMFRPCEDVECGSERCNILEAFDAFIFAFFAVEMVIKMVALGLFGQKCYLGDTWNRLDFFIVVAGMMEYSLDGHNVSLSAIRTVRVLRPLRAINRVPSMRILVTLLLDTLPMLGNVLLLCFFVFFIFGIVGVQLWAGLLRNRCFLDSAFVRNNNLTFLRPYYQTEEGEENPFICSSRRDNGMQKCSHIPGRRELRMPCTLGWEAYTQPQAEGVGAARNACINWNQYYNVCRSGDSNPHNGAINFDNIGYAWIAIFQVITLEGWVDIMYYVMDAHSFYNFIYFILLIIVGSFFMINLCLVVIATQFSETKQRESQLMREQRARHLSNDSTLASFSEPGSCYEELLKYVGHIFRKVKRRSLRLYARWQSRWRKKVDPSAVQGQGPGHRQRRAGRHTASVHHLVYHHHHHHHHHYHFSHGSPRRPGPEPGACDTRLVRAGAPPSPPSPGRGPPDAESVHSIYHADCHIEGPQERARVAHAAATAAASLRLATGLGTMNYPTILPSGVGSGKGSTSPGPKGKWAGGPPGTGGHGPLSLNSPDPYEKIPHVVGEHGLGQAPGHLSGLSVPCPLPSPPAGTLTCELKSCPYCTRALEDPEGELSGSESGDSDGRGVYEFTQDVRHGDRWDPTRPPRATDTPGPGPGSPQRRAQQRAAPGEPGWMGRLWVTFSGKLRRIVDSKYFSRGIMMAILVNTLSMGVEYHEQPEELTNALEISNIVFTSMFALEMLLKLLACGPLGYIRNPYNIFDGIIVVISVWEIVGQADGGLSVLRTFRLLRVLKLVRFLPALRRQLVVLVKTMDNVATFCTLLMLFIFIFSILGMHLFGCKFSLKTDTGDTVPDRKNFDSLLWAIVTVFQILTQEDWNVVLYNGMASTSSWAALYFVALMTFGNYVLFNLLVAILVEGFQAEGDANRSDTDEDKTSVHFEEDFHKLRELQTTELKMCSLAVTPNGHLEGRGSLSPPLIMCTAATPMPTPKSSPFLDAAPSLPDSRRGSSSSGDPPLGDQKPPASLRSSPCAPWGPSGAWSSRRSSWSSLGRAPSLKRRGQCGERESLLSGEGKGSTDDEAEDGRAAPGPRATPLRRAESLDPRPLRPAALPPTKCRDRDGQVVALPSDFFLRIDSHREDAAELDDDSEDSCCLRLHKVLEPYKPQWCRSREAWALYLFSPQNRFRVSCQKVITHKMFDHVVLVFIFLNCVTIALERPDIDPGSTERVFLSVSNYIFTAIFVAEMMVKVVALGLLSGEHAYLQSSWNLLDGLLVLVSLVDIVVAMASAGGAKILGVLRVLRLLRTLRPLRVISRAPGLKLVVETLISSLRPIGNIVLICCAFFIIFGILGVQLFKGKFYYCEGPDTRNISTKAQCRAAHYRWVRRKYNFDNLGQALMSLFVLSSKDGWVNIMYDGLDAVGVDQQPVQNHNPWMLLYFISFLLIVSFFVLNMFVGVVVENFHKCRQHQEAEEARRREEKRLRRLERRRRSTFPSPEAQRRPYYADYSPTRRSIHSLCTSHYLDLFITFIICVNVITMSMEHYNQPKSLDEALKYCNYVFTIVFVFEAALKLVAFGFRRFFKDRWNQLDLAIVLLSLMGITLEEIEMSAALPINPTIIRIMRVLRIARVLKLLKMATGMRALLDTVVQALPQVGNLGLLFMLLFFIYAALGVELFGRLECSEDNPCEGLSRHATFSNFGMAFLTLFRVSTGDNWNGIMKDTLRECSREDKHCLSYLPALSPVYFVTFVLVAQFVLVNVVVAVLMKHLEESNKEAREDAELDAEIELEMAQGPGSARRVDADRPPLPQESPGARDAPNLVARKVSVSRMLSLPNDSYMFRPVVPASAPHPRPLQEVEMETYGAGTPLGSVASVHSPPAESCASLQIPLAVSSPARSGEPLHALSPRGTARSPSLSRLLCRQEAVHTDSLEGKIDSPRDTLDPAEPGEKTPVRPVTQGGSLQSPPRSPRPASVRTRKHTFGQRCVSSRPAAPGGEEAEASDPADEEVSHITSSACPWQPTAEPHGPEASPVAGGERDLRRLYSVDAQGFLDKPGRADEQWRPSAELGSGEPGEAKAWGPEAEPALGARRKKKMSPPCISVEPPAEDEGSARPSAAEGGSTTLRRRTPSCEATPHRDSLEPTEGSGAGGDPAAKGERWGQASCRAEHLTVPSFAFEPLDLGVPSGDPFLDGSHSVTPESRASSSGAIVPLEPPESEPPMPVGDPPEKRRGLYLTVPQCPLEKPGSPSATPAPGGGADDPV

Regarding `O=C(CC1c2ccccc2N=C(c2ccccc2)N1c1ccccc1)OCc1ccccc1` (stereo not shown) [Compound 05032], the inhibition at 100 µM in test [1] is 14.2%.

In the case of `CN1CCN(C2=Nc3ccccc3C(CC(=O)NCc3ccccc3)N2c2ccccc2)CC1` (stereo not shown) [KYS05028, 4-(N-benzylacetamido)-3-phenyl-2-(4-methylpiperazinyl)-3,4-dihydroquinazoline], the inhibition at 100 µM in test [1] was found to be 70.3%. In test [2] (setting [3]), the inhibition at 10 µM came out at 29%. Besides, the IC50 – broadly, the concentration at which inhibition is half-maximal – in test [2] (HEK 293 cells expressing α1G) turned out to be 35.8 µM. Regarding `CN1CCN(C2=Nc3ccccc3C(CC(=O)OCc3ccccc3)N2c2ccccc2)CC1` (stereo not shown) [Compound 05029], in test [1], the inhibition at 100 µM was 32.7%. For the compound `Nc1ccc(CNC(=O)CC2c3ccccc3N=C(N3CCCCC3)N2c2ccccc2)cc1` (stereo not shown) [Compound 05040], the inhibition at 100 µM in test [1] worked out at 66.8%. Moreover, in test [2] (setting [4]), the inhibition at 10 µM amounted to 43.5%. Also, in test [2] (HEK 293 cells expressing α1G), the IC50 was determined as 14.4 µM.

Turning to `COCC(=O)O[C@]1(CCN(C)CCCc2nc3ccccc3[nH]2)CCc2cc(F)ccc2[C@@H]1C(C)C` [Mibefradil, reference compound], in test [1], the “inhibitory effect (blocking percentage), Xenopus oocyte (α1H) at 100 μM” value is on record as 86.0% and the inhibition at 100 µM stood at 86%. For the compound `O=C(CC1c2ccccc2N=C(N2CCOCC2)N1c1ccccc1)NCc1ccccc1` (stereo not shown) [KYS05026, 4-(N-benzylacetamido)-3-phenyl-2-(morpholin-1-yl)-3,4-dihydroquinazoline], in test [1], the inhibition at 100 µM is 63.8%. In addition, in test [2] (setting [4]), the inhibition at 10 µM worked out at 40.5%. Besides, in test [2] (HEK 293 cells expressing α1G), the IC50 was 21.6 µM. Turning to `O=C(CC1c2ccccc2N=C(N2CCCCC2)N1c1ccccc1)NCc1ccc([N+](=O)[O-])cc1` (stereo not shown) [KYS05034, 4-[N-(4-nitrobenzyl)acetamido]-3-phenyl-2-(piperidine-1-yl)-3,4-dihydroquinazoline], the inhibition at 100 µM in test [1] stood at 91.9%. Further, the inhibition at 10 µM in test [2] (setting [3]) turned out to be 92.3%. In test [2] (HEK 293 cells expressing α1G), the IC50 came out at 2.5 µM.

In the case of `O=C(CC1c2ccccc2N=C(c2ccccc2)N1c1ccccc1)NCc1ccccc1` (stereo not shown) [Compound 05031], the inhibition at 100 µM in test [1] amounted to 14.8%. Still for that read-out and setting: to `CCO/C(O)=C(\C#N)C1=Nc2ccccc2C(CC(=O)OC)N1c1ccccc1` (stereo not shown) [Compound 05033] belongs 38.9%; to `O=C(CC1c2ccccc2N=C(N2CCOCC2)N1c1ccccc1)OCc1ccccc1` (stereo not shown) [Compound 05027], 20.9%.

The record behind these values is patent publication US7271260B2, “3,4-dihydroquinazoline derivatives as T-type calcium channel blockers and method of preparing the same” (Korea Institute of Science and Technology, priority 2004, dated 2007).
